Data on 22 molecules can be found in patent US20070287699A1, “ANTIVIRAL AGENTS” (ViroBay, Inc., priority 2006, published 2007).

pIC50: −log10 of the molar value.

In general, pIC50 refers to the IC50 on a negative log10 scale, so that one unit is a factor of ten.

For the first assay, the system named is HCV replicon RNA replication in human Huh7 hepatoma cells. In words: HCV replicon assay (activity levels from either or both of HCV replicon assay 1, Huh7/Clone A RT-qPCR, and assay 2, Huh7 ET luc-ubi-neo/ET). In kind it is cell-based, Hepatitis C virus (HCV). As to conditions: Hepatitis C virus, Huh-7, either or both HCV replicon assays: Huh7/Clone A, 48 hours, 72 hours, Luc activity or RT-PCR, read-out: inhibit HCV replication at IC50 levels or estimated IC50 levels. The text has this: The HCV replicon assay is a cell-culture system that mimics in vivo HCV replication and provides a system to study HCV replication in vitro. It was created by transfecting cloned viral RNA derived from a consensus HCV genomic sequence into human Huh7 hepatoma cells that are semi-permissive for viral RNA production (Lohmann V., Korner F., Koch J.-O., Herian U., Theilmann L. and Bartenschlager R. (1999). Replication of subgenomic Hepatitis C virus RNAs in a hepatoma cell line. Science 285, 110-113 and Blight K. J., Kolykhalov A. A. and Rice C. M. (2000). Efficient initiation of HCV RNA Replication in cell culture. Science 290, […]). These transfected cell lines contain a subgenomic HCV RNA genome that includes (1) the HCV 5′NTR fused to 12 amino acids of the capsid coding region, (2) the neomycin phosphotransferase gene (Neo) as a selectable marker, (3) the internal ribosome entry site (IRES) from encephalomyocarditis virus (EMCV) that directs translation of HCV non-structural proteins (variously NS2 or NS3 to NS5B), and (4) the 3′ NTR. Replicon-containing cells autonomously and persistently replicate HCV RNA that can be measured quantitatively by real-time qPCR. Therefore, the replicon system facilitates quantitative assessment of anti-viral activity by monitoring changes in HCV RNA replication in a cell-based assay.
HCV replicon-containing cells (Huh7/Clone A) were routinely maintained in Clone A growth medium (DMEM medium [Invitrogen], supplemented with 10% Fetal Bovine Serum, 1% Non Essential Amino Acids and 1 g/L G418). Test compounds were dissolved in dimethyl sulfoxide (DMSO) to make 200× stock solutions for all doses prior to treatment.
For the HCV replicon assay, Huh7/Clone A cells were trypsinized from culture flasks, seeded in 1 ml of Clone A growth medium without G418 at 4×10^4 cells per well in 24-well plates and incubated at 37° C. in a humidified CO2 (5%) incubator overnight. Following overnight incubation, compound solutions were added into wells in the same volume (5 μl of 200× compound stock per well) to give a final DMSO concentration of 0.5%. Three wells on each plate supplemented with 5 μl of DMSO served as untreated controls. For IC50 determinations, compounds were tested at 7 serial dilutions in triplicates from the starting stock solutions. The plates were incubated at 37° C. for 48 hours. After incubation, cells were harvested, transferred to 96-well plates, and subjected to total RNA extraction using the RNA Isolation Kit (RNeasy 96, Qiagen) according to the protocol described by the manufacture's RNeasy 96 Handbook (Qiagen).
Total RNA eluted in 130 μl of RNase-free dH2O was quantitated by the RiboGreen Assay according to the supplier's protocol (Molecular Probe). Briefly, 5 μl of RNA samples were aliquoted in duplicate to a 96-well black microplate and a 96-well TaqMan Optical plate. RNA samples in the black microplate were mixed with 95 μl of diluted RiboGreen:reagent (1:250 dilution in TE buffer) and sample fluorescence was measured using a fluorescence microplate reader at standard fluorescein wavelengths (excitation ˜480 nm, emission ˜520 nm). Ribosomal RNA (Molecular Probe) was used as standard.
TaqMan quantitative PCR (RT-qPCR) was used to quantitate the amount of HCV replicon RNA in each sample. The RT-qPCR reactions were performed in 25 μl on an ABI PRISM 7900 HT Sequence Detection System (Applied Biosystems). The reaction mixture contained 5 μl of total RNA (10-100 ng), 1× TaqMan Buffer A (Applied Biosystems), 5.5 mM MgCl2, 1.2 mM dNTP mix, 0.625 U of AmpliTaq Gold (Applied Biosystems), 5 U of MMLV reverse transcriptase (Promega), 5 U of rRNasin (Promega), 300 nM each of the forward and reverse primers, and 100 nM TaqMan MGB probe. Primers and probe were designed to hybridize to a portion of the neomycin resistance gene (neo) in the replicon and the sequences are as follows: forward primer 5′-GGCTACCTGCCCATTCGA-3′; reverse primer 5′-CCGGCTTCCATCCGAGTAC-3′; MGB probe 5′-CCACCAAGCGAAACA-3′. […]
For `COc1cc2c(=O)c(-c3noc(Cc4ccccc4)n3)cn(Cc3ccc(Cl)cc3)c2cc1OC` [Compound 1, 3-(5-Benzyl-[1,2,4]oxadiazol-3-yl)-1-(4-chloro-benzyl)-6,7-dimethoxy-1H-quinolin-4-one], the pIC50 is below 5.00.

As to `COc1cc2c(=O)c(-c3noc(C4(c5ccccc5)CC4)n3)cn(Cc3ccc(Cl)cc3)c2cc1OC` [Compound 2, 1-(4-chloro-benzyl)-6,7-dimethoxy-3-[5-(1-phenyl-cyclopropyl)-[1,2,4]oxadiazol-3-yl]-1H-quinolin-4-one], the pIC50 was below 5.00. Same read-out and setting: in the case of `COc1cc2c(=O)c(-c3noc(Cc4ccccn4)n3)cn(Cc3ccc(Cl)cc3)c2cc1OC` [Compound 3, 1-(4-chloro-benzyl)-6,7-dimethoxy-3-(5-pyridin-2-ylmethyl-[1,2,4]oxadiazol-3-yl)-1H-quinolin-4-one] it was below 5.00. Same read-out and setting: the same measure for `COc1cc2c(=O)c(-c3noc(Cc4ccc(C)cc4)n3)cn(Cc3ccc(Cl)cc3)c2cc1OC` [Compound 4, 1-(4-chloro-benzyl)-6,7-dimethoxy-3-[5-(4-methyl-benzyl)-[1,2,4]oxadiazol-3-yl]-1H-quinolin-4-one]: below 5.00; for `COc1cc2c(=O)c(-c3noc(CC4CCCCC4)n3)cn(Cc3ccc(Cl)cc3)c2cc1OC` [Compound 5, 1-(4-chloro-benzyl)-3-(5-cyclohexylmethyl-[1,2,4]oxadiazol-3-yl)-6,7-dimethoxy-1H-quinolin-4-one]: below 5.00. As to `COc1cc2c(=O)c(-c3noc(Cc4ccsc4)n3)cn(Cc3ccc(Cl)cc3)c2cc1OC` [Compound 6, 1-(4-chloro-benzyl)-6,7-dimethoxy-3-(5-thiophen-3-ylmethyl-[1,2,4]oxadiazol-3-yl)-1H-quinolin-4-one], the pIC50 was above 5.00. The same measure, in the same setting: in the case of `COc1cc2c(=O)c(-c3noc(CC4CCCC4)n3)cn(Cc3ccc(Cl)cc3)c2cc1OC` [Compound 7, 1-(4-chloro-benzyl)-3-(5-cyclopentylmethyl-[1,2,4]oxadiazol-3-yl)-6,7-dimethoxy-1H-quinolin-4-one] it was below 5.00. Still for that read-out and setting: in the case of `CN1CCN(c2cc3c(cc2F)c(=O)c(-c2noc(Cc4ccccc4)n2)cn3Cc2ccc(Cl)cc2)CC1` [Compound 8, 3-(5-benzyl-[1,2,4]oxadiazol-3-yl)-1-(4-chloro-benzyl)-6-fluoro-7-(4-methyl-piperazin-1-yl)-1H-quinolin-4-one] it was above 5.70. Still for that read-out and setting: the same measure for `CN1CCN(c2cc3c(cc2F)c(=O)c(-c2noc(Cc4ccccc4)n2)cn3CC2CCCCC2)CC1` [Compound 9, 3-(5-benzyl-[1,2,4]oxadiazol-3-yl)-1-cyclohexylmethyl-6-fluoro-7-(4-methyl-piperazin-1-yl)-1H-quinolin-4-one]: above 5.70; for `COc1ccc2c(c1)c(=O)c(-c1noc(Cc3ccccc3)n1)cn2CC1CCCCC1` [Compound 10, 3-(5-benzyl-[1,2,4]oxadiazol-3-yl)-1-cyclohexylmethyl-6-methoxy-1H-quinolin-4-one]: below 5.00; for `COc1ccc2c(c1)c(=O)c(-c1noc(Cc3ccccc3)n1)cn2Cc1ccc(Cl)cc1` [Compound 11, 3-(5-benzyl-[1,2,4]oxadiazol-3-yl)-1-(4-chloro-benzyl)-6-methoxy-1H-quinolin-4-one]: below 5.00. With `O=c1c(-c2noc(Cc3ccccc3)n2)cn(Cc2ccc(Cl)cc2)c2ccc(O)cc12` [Compound 12, 3-(5-benzyl-[1,2,4]oxadiazol-3-yl)-1-(4-chloro-benzyl)-6-hydroxy-1H-quinolin-4-one], the pIC50 was above 5.00. Same read-out and setting: the same measure for `CC(C)Cc1nc(-c2cn(CC3CCCCC3)c3cc(N4CCN(C)CC4)c(F)cc3c2=O)no1` [Compound 13, 1-cyclohexylmethyl-6-fluoro-3-(5-isobutyl-[1,2,4]oxadiazol-3-yl)-7-(4-methyl-piperazin-1-yl)-1H-quinolin-4-one]: below 5.00; for `CN1CCN(c2cc3c(cc2F)c(=O)c(-c2noc(CC4CC4)n2)cn3CC2CCCCC2)CC1` [Compound 14, 1-cyclohexylmethyl-3-(5-cyclopropylmethyl-[1,2,4]oxadiazol-3-yl)-6-fluoro-7-(4-methyl-piperazin-1-yl)-1H-quinolin-4-one]: above 5.00; for `CN1CCN(c2cc3c(cc2F)c(=O)c(-c2noc(CC4CCCC4)n2)cn3CC2CCCCC2)CC1` [Compound 15, 1-cyclohexylmethyl-3-(5-cyclopentylmethyl-[1,2,4]oxadiazol-3-yl)-6-fluoro-7-(4-methyl-piperazin-1-yl)-1H-quinolin-4-one]: above 5.00.

Regarding `CN1CCN(c2cc3c(cc2F)c(=O)c(-c2noc(CC4CCCC4)n2)cn3Cc2ccc(C(F)(F)F)cc2F)CC1` [Compound 17, 3-(5-cyclopentylmethyl-[1,2,4]oxadiazol-3-yl)-6-fluoro-1-(2-fluoro-4-trifluoromethyl-benzyl)-7-(4-methyl-piperazin-1-yl)-1H-quinolin-4-one], the pIC50 is above 5.70. Same read-out and setting: the same measure for `Cc1cccc(Cc2nc(-c3cn(CC4CCCCC4)c4cc(N5CCN(C)CC5)c(F)cc4c3=O)no2)c1` [Compound 19, 1-cyclohexylmethyl-6-fluoro-3-[5-(3-methyl-benzyl)-[1,2,4]oxadiazol-3-yl]-7-(4-methyl-piperazin-1-yl)-1H-quinolin-4-one]: above 5.00; for `Cc1ccccc1Cc1nc(-c2cn(CC3CCCCC3)c3cc(N4CCN(C)CC4)c(F)cc3c2=O)no1` [Compound 20, 1-cyclohexylmethyl-6-fluoro-3-[5-(2-methyl-benzyl)-[1,2,4]oxadiazol-3-yl]-7-(4-methyl-piperazin-1-yl)-1H-quinolin-4-one]: above 5.00. Same read-out and setting: the same measure for `CN1CCN(c2cc3c(cc2F)c(=O)c(-c2noc(CC(C)(C)C)n2)cn3Cc2ccc(Cl)cc2)CC1` [Compound 21, 1-(4-chloro-benzyl)-3-[5-(2,2-dimethyl-propyl)-[1,2,4]oxadiazol-3-yl]-6-fluoro-7-(4-methyl-piperazin-1-yl)-1H-quinolin-4-one]: below 5.00; for `CN1CCN(c2cc3c(cc2F)c(=O)c(-c2noc(Cc4ccccc4CC(=O)O)n2)cn3Cc2ccc(Cl)cc2)CC1` [Compound 22, (2-{3-[1-(4-chloro-benzyl)-6-fluoro-7-(4-methyl-piperazin-1-yl)-4-oxo-1,4-dihydro-quinolin-3-yl]-[1,2,4]oxadiazol-5-ylmethyl}-phenyl)-acetic acid]: below 5.00. As to `CN1CCN(c2cc3c(cc2F)c(=O)c(-c2noc(Cc4ccc(F)cc4)n2)cn3Cc2ccc(C(F)(F)F)cc2F)CC1` [Compound 23, 6-fluoro-3-[5-(4-fluoro-benzyl)-[1,2,4]oxadiazol-3-yl]-1-(2-fluoro-4-trifluoromethyl-benzyl)-7-(4-methyl-piperazin-1-yl)-1H-quinolin-4-one], the pIC50 is above 5.70.

Staying with this assay, now noted: either or both HCV replicon assays: Huh7/Clone A, 48 hours, 72 hours, Luc activity or RT-PCR, read-out: inhibit HCV replication at IC50 levels or estimated IC50 levels.
As for `CN1CCN(c2cc3c(cc2F)c(=O)c(-c2noc(Cc4ccccc4)n2)cn3Cc2ccc(C(F)(F)F)cc2F)CC1` [Compound 16, 3-(5-benzyl-[1,2,4]oxadiazol-3-yl)-6-fluoro-1-(2-fluoro-4-trifluoromethyl-benzyl)-7-(4-methyl-piperazin-1-yl)-1H-quinolin-4-one], the pIC50 was above 6.30.
